Assay results taken from article PMC5618191 (Toxins, 2017).

How the values were obtained:
KB-3-1 cells = test: Western blot analysis of apoptosis proteins; format: cell-based, human; conditions: KB-3-1, 24 h
Protocol: 1. Supplementary Materials and Methods […]
1.3 Western Blot Analysis […]
according to standard procedures, separated by SDS-PAGE, and transferred to a polyvinylidene difluoride membrane for Western blotting as described previously. The following primary antibodies specific for the following targets were diluted 1:1000 in TBST/3% BSA (w/v): PARP, Bak, Bax, Bim, Bcl-xL (polyclonal, Cell Signaling Technology, Beverly, MA, USA), caspase 9, cl. caspase 9 (monoclonal, Cell Signaling Technology) and β-actin (monoclonal, Clone AC-15, Sigma-Aldrich).
Secondary horseradish peroxidase-labeled antibodies (goat anti-rabbit or anti-mouse, Santa Cruz Biotechnology, Dallas, Texas, TX, USA) were diluted 1:10,000 in TBST/1% BSA.
(black circles), human non-malignant keratinocytes HaCaT (open circles), murine colon carcinoma CT-26 (asterisks), human cervix carcinoma KB-3-1 (gray triangle) and human colon carcinoma SW480 cells (gray square) at higher density. Cells were grown to a 50-60% confluence and treated with the […]
The IC50 level is indicated by the dotted line. Mean values (± SD) of one representative experiment in triplicate are shown.
Figure S4. […]
Significant differences to untreated controls are marked by asterisks (***p<0.001). (c) Expression of PARP and caspase 9 and amount of cleaved (Cl.) PARP and cleaved Caspase 9, as well as protein expression of Bim, Bax, Bak and Bcl-xL in beauvericin-treated (24 h) and untreated cells were determined by Western Blotting. β-actin served as loading control. […]

HUVEC cells = test: Vessel forming and migratory ability of HUVEC cells; format: cell-based, human; conditions: subtoxic concentrations, unpublished data
[1] = tested on: KB-3-1-derived tumor xenografts; test: KB-3-1 xenograft mouse model; format: in vivo, CB-17/SCID mice
Protocol: (§1) For the allograft experiment, 4 × 10^5 CT-26 cells were resuspended in 50 µL RPMI medium and injected subcutaneously into the right flank of eight, 6–8 weeks old, male BALB/c mice that were obtained from Harlan Laboratories (San Pietro al Natisone, Italy). Likewise, in the xenograft experiment, 1 × 10^6 KB-3-1 cells in 50 µL RPMI medium were injected subcutaneously into the right flank of eight, 6–8 weeks old, male CB-17/IcrHanHsd-Prkdc severe combined immunodeficiency (SCID) mice. Of each group, four animals were randomly assigned to the control or to the treatment group. […] All animals were kept under pathogen-free conditions and all procedures were performed in a laminar flow hood. Effects of the treatment were assessed by daily recording of tumor size with a microcaliper and parameters indicating the animals’ overall health condition (e.g., body weight, fatigue, grooming, ragged coat, food and fluid consumption). Tumor volumes (mm^3) were calculated using the formula: (length × width^2)/2. […] The tumor mass was weighed and organs and tissues for immunohistochemical experiments were fixed in 4% formalin/PBS (Roti®-Histofix 4%, Roth, Karlsruhe, Germany) or shock-frozen in liquid nitrogen and stored at −80 °C until the samples were prepared for LC-MS/MS analysis. The experiments were approved by the ethics committee of the Austrian Federal Ministry of Science, Research, and Economy (BMWF-66.009/0084-II/3b/2013, date of approval: 5 September 2013) and performed in line with the Arrive guidelines for animal care and protection and with guidelines from the Austrian Animal Science Association and from the Federation of European Laboratory Animal Science Associations (FELASA).
(§2) From each mouse from both the control (n = 4) and the treatment group (n = 4), tissue samples were formalin-fixed, paraffin-embedded and used to prepare serial 3 µm sections. Then, slices were deparaffinized and rehydrated. To evaluate the percentages of interphase/resting, mitotic and dead (apoptotic/necrotic) cell fractions in tumor specimens, sections were stained with hematoxylin and eosin (H/E) by means of standard protocols. Numbers of the three cell fractions were analyzed in a blinded setup in at least four images of H/E-stained tumor sections, taken under a 40 × objective microscope lens. In addition, for the quantification of areas of dead tumor tissue in whole tumor sections, the H/E-stained slides were scanned with a Pannoramic MIDI automated slide scanner (3[…], Budapest, Hungary) and evaluated using Definiens’ TissueStudio® 4.0 (Definiens®, Munich, Germany) software and Pannoramic Viewer (3[…]) software. To evaluate the fraction of apoptotic cells in tumor sections a terminal deoxynucleotidyl transferase (TdT) deoxyuridine triphosphate (dUTP) nick end labeling (TUNEL) assay was performed applying the In Situ Cell Death Kit TMR (red) (Roche Diagnostics, Mannheim, Germany) according to the manufacturer’s protocol. Afterwards, slides were covered with Vectashield anti-fade mounting medium with DAPI (H-1200, Vector Laboratories, Burlingame, CA, USA). Slides were protected from light until they were scanned with a Pannoramic MIDI automated slide scanner (3[…]) and analyzed via digital image analysis software (Definiens’ TissueStudio® 4.0, Definiens®). In order to visualize the proliferative cell fraction (cells in the interphase or M-phase) of tumors, KB-3-1 tumor sections were stained with the Ki-67 (clone MiB-1) antibody from DAKO (1:100; Glostrup, Denmark) and for CT-26 tumor sections with Ki-67 (1:100; D3B5, rabbit, Cell Signaling, Danvers, USA). The primary antibody was incubated for 30 min at room temperature in a humid chamber and after rinsing the slides for 3 min in PBS + 0.1% Tween, the UltraVision LP detection system was applied according to the manufacturer’s instructions (Thermo Fisher Scientific, Massachusetts, MA, USA). Sections were counterstained with hematoxylin. […]

[2] = tested on: CT-26-derived tumor allografts; test: CT-26 allograft mouse model; format: in vivo, BALB/c mice
Protocol: as §1, §2

For beauvericin, the “Antiapoptotic Bcl-xL” value (KB-3-1 cells) was “reduced”, the “Cleavage of PARP and caspase 9” value (KB-3-1 cells) was “induced” and the “Proapoptotic Bcl-2 family members Bim and Bak” value (KB-3-1 cells) was “upregulation”. For the same substance, the “Vessel forming and migratory ability of HUVEC cells” value (HUVEC cells) was “distinctly inhibited”, the “Mean tumor weight lowered” value ([1]; 5 mg/kg bw/day, day 16, vs control, p = 0.152) was 31.2% and the “Reduction in tumor volume” value ([1]; 5 mg/kg bw/day, two cycles, day 16) was 31.3%. The “Percentages of apoptotic/necrotic cells within viable areas (H/E)” value ([1]; treated vs control) was “almost no difference”, the “Increase of TUNEL-positive cells” value ([1]; treated vs control, p = 0.143) was 1.5 fold and the “Increase of proportion of necrotic areas in H/E-stained whole tumor sections” value ([1]; treated vs control, significant) was 34.2%. For the same substance, the Ki-67-positive cells ([1]; treatment group, tumor sections, control 99.5 ± 0.6%) was 98.8 ± 0.6%, the “Mitotic cells in H/E-stained tumor sections” value ([1]; treatment group, control 1.5 ± 0.4%) was 1.3 ± 0.3% and the “Average tumor weight reduction” value ([2]; 5 mg/kg bw/day i.p., day 14, vs untreated, p = 0.057) was 60%. The “Reduction of mean tumor volume” value ([2]; 5 mg/kg bw/day i.p., two cycles, day 14, vs solvent control) was 52.8%, the “Higher rate of scattered cells with signs of cell death (apoptosis or necrosis) in viable tumor regions” value ([2]; H/E, treated vs control, p < 0.05) was 22% and the “Ki-67-positive (proliferating) tumor cells” value ([2]; treated group, tumor sections, control 66.9 ± […]) was 81.6 ± 3.7%. For the same substance, the “Mitotic cells in H/E-stained tumor sections” value ([2]; treated group, control 0.4 ± 0.1%) was 0.3 ± 0.2%, the “Increase of average apoptosis rate (TUNEL) in viable tumor areas” value ([2]; treated versus untreated, p = 0.065) was 2.1 fold and the “Increase of necrotic areas in H/E-stained whole tumor sections” value ([2]; treated vs control, p < 0.05) was 2.2 fold.
